Assay results: PMC5290327, “SC83288 is a clinical development candidate for the treatment of severe malaria” (Nature Communications, 2017)
“And” between values parts separate entries of the source, which are not always exact repeats. Equal entries are not always repeated. “Also recorded” adds a separate entry of the source.

Assays:
TP (h) (TXA2/PGH2) = target: T1, TP (h) (TXA2/PGH2) (Homo sapiens, UniProt P21731); assay: Radioligand binding
T1 construct: Cerep
T1 sequence (P21731 1-343): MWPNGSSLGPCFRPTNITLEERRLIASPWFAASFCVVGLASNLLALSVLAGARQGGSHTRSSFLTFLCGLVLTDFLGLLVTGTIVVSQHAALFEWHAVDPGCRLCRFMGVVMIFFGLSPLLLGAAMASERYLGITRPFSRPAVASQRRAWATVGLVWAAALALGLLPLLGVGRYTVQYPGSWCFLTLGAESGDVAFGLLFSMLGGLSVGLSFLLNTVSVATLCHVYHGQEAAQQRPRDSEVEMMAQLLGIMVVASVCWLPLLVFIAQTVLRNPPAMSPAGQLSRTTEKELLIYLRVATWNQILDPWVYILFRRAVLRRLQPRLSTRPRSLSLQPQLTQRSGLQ

401 human kinases = assay: Kinase competition assay, whole panel; assay type: binding; details: 10 μM
Method: The KINOMEscan was carried out by Ambit (San Diego, USA) according to a previously established protocol. The experiment was based on a competition binding assay that quantitatively measures the ability of a compound to compete with an immobilized, active-site directed ligand. The assay is performed by combining three components: DNA-tagged kinase; immobilized ligand; and a test compound. The ability of the test compound to compete with the immobilized ligand is measured via quantitative PCR of the DNA tag.
For most assays, kinase-tagged T7 phage strains were grown in parallel in 24-well blocks in an Escherichia coli host derived from the BL21 strain. E. coli were grown to log-phase and infected with T7 phage from a frozen stock and incubated with shaking at 32 °C until lysis (90–150 min). The lysates were centrifuged (6,000g) and filtered (0.2 μm) to remove cell debris. The remaining kinases were produced in HEK-293 cells (Sigma Aldrich, catalogue number: 85120602) and subsequently tagged with DNA for quantitative PCR detection. […] The liganded beads were blocked with excess biotin and washed with blocking buffer (SeaBlock (Pierce), 1% bovine serum albumin, 0.05% Tween 20 and 1 mM dithiothreitol) to remove unbound ligand and to reduce non-specific phage binding. […] The kinase concentration in the eluates was measured by quantitative PCR.

P. falciparum strain 3D7 = assay: Growth inhibition assay; assay type: cell-based; details: Plasmodium falciparum
CYP2E1 = CYP2E1 (Homo sapiens, UniProt P05181); assay: CYP inhibition, human liver microsomes; details: for Remaining enzyme activity: CYP2E1, chlorzoxazone to 6-OH-chlorzoxazone, 10 µM
Sequence of CYP2E1 (P05181 whole entry): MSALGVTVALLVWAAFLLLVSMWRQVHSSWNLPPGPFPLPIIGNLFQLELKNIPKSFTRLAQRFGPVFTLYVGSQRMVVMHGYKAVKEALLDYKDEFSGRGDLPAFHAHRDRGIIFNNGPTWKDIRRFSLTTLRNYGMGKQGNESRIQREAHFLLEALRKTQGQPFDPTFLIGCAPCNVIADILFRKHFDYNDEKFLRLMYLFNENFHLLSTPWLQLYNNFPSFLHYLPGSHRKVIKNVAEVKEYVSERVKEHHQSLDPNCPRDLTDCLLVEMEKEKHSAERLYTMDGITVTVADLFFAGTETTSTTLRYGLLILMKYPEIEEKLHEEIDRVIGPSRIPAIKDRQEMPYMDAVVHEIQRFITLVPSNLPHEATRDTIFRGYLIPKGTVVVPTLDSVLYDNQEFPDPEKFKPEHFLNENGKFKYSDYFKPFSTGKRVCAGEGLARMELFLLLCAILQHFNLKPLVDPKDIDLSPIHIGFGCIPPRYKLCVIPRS

CB1 (h) = target: T2, CB1 (h) (Homo sapiens, UniProt P21554); assay: Radioligand binding
T2 construct: Cerep (contract study)
T2 sequence (P21554 whole entry): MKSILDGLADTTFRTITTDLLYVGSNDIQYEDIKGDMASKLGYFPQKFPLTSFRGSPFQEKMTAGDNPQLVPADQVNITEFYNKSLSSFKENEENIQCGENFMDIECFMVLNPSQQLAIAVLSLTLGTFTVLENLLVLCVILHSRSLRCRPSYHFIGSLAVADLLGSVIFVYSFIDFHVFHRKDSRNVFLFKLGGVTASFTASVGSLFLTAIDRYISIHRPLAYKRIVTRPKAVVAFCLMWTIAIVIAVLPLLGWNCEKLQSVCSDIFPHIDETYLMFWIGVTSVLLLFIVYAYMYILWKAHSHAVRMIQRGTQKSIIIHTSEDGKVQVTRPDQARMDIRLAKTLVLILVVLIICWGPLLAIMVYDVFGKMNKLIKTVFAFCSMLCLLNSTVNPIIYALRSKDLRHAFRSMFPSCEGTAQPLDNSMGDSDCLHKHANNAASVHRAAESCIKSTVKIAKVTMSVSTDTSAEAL

NOP (ORL1) (h) = target: T3, NOP (ORL1) (h) (Homo sapiens, UniProt P41146); assay: Radioligand binding
T3 construct: Cerep

dopamine transporter (h) = target: T4, dopamine transporter (h) (Homo sapiens, UniProt Q01959); assay: Radioligand binding
T4 construct: Cerep (contract screening)

[1] = In vitro metabolism in liver microsomes; details: mouse liver microsomes, 10 μM
M2 (h) = target: T5, M2 (h) (Homo sapiens, UniProt P08172); assay: Radioligand binding
T5 construct: Cerep
T5 sequence (P08172 whole entry): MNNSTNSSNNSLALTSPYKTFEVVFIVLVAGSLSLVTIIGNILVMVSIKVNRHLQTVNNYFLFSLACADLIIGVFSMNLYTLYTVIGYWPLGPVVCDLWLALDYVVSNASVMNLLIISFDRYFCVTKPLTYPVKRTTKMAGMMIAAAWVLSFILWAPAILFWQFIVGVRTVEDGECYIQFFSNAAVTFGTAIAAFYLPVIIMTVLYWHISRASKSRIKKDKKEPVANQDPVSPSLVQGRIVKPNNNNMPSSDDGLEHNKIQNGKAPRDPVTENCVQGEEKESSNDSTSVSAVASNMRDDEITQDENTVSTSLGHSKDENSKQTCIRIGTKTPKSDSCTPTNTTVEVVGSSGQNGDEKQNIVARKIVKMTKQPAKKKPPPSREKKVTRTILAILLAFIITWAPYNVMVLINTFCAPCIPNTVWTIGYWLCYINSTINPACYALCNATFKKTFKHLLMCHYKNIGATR

CYP3A4 = CYP3A4 (Homo sapiens, UniProt P08684); assay: CYP inhibition, human liver microsomes; details: 10 µM
Sequence of CYP3A4 (P08684 whole entry): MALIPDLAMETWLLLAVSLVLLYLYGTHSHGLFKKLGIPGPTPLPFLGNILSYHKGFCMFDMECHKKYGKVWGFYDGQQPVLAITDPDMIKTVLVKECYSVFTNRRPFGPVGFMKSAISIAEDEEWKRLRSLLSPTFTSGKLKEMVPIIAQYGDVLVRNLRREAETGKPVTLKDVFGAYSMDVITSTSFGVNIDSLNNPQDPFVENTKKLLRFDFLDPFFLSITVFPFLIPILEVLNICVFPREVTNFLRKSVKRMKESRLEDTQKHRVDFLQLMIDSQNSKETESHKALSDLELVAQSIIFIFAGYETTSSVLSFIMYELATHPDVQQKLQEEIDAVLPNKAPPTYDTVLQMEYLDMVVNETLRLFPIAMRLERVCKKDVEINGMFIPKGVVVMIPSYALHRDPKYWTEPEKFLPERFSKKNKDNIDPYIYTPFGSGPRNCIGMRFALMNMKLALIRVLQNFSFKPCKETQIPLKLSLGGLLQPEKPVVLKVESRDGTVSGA

Plasmodium vinckei = assay: Rodent malaria model; assay type: in vivo
Text: The two SC compounds were also active in the Plasmodium vinckei rodent malaria model system.

[2] = In vitro metabolism in liver microsomes; details: for remaining after 60 min of incubation: human liver microsomes, 10 μM; for microsomal CLint at 10 μM: human, liver microsomes
ETA (h) = target: T6, ETA (h) (Homo sapiens, UniProt P25101); assay: Radioligand binding
T6 construct: Cerep
T6 sequence (P25101 21-427): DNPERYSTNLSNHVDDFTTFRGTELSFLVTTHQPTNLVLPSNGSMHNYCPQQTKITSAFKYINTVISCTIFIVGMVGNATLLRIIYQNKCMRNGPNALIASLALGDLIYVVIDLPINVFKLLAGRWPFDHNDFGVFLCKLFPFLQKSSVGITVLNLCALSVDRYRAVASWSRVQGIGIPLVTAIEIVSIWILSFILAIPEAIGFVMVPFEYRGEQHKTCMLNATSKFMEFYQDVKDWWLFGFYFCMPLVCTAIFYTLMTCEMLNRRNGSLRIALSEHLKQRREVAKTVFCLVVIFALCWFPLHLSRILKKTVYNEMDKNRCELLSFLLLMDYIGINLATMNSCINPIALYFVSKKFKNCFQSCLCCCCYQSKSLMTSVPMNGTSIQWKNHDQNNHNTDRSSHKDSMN

5-HT1B = target: T7, 5-HT1B (Rattus norvegicus, UniProt P28564); assay: Radioligand binding
T7 construct: Cerep (contract screening)
T7 sequence (P28564 whole entry): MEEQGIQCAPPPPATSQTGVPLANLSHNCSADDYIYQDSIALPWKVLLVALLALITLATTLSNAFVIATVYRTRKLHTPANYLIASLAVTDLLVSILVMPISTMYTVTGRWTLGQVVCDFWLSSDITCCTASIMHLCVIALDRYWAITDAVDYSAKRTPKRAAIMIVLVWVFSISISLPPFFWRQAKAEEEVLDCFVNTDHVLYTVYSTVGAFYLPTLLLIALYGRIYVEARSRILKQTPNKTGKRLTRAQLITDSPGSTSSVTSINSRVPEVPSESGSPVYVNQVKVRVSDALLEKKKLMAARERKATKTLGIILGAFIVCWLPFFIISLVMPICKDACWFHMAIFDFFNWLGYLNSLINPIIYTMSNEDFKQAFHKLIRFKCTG

5-HT3 (h) = target: T8, 5-HT3 (h) (Homo sapiens, UniProt P46098); assay: Radioligand binding
T8 construct: Cerep (contract screening)

CCK1 (CCKA) (h) = target: T9, CCK1 (CCKA) (h) (Homo sapiens, UniProt P32238); assay: Radioligand binding
T9 construct: Cerep (contract study)
T9 sequence (P32238 whole entry): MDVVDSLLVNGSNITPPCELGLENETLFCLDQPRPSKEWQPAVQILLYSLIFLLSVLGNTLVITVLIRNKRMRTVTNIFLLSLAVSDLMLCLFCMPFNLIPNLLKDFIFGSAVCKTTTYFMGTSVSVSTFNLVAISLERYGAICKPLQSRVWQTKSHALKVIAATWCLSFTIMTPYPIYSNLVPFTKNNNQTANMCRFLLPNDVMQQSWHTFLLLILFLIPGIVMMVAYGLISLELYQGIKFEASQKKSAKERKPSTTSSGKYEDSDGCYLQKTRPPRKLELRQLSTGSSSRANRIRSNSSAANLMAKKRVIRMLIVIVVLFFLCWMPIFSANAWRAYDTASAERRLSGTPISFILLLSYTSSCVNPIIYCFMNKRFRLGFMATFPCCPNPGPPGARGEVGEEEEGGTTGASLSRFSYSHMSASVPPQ

b2 (h) = target: T10, b2 (h) (Homo sapiens, UniProt P07550); assay type: binding
T10 construct: Cerep (contract study)

M1 (h) = target: T11, M1 (h) (Homo sapiens, UniProt P11229); assay type: binding
T11 construct: Cerep
T11 sequence (P11229 whole entry): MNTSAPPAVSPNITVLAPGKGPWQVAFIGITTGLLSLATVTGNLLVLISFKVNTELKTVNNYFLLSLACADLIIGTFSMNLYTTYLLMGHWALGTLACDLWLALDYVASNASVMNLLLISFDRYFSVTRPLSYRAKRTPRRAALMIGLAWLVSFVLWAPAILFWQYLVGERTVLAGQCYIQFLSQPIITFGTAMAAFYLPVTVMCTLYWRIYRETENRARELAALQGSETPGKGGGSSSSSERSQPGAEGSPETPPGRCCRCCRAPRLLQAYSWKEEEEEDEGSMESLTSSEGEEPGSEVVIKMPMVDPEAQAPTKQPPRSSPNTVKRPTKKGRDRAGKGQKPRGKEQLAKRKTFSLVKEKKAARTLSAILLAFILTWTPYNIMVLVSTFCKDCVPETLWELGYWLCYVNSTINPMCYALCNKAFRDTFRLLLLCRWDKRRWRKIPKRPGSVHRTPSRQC

CXCR2 (IL-8B) (h) = target: T12, CXCR2 (IL-8B) (h) (Homo sapiens, UniProt P25025); assay: Radioligand binding
T12 construct: Cerep
T12 sequence (P25025 1-360): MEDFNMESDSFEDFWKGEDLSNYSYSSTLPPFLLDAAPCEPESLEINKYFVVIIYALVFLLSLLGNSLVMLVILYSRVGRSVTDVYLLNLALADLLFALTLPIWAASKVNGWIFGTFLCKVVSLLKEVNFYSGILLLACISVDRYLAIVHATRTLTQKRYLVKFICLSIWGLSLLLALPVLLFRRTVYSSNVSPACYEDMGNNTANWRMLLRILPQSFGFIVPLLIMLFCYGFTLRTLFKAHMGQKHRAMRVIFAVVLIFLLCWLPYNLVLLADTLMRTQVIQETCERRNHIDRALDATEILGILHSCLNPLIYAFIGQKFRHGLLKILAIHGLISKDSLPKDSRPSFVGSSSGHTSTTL

[3] = test system: P. falciparum strain Thai19; assay: Growth inhibition assay; assay type: cell-based; details: Plasmodium falciparum
M3 (h) = target: T13, M3 (h) (Homo sapiens, UniProt P20309); assay: Radioligand binding
T13 construct: Cerep
T13 sequence (P20309 whole entry): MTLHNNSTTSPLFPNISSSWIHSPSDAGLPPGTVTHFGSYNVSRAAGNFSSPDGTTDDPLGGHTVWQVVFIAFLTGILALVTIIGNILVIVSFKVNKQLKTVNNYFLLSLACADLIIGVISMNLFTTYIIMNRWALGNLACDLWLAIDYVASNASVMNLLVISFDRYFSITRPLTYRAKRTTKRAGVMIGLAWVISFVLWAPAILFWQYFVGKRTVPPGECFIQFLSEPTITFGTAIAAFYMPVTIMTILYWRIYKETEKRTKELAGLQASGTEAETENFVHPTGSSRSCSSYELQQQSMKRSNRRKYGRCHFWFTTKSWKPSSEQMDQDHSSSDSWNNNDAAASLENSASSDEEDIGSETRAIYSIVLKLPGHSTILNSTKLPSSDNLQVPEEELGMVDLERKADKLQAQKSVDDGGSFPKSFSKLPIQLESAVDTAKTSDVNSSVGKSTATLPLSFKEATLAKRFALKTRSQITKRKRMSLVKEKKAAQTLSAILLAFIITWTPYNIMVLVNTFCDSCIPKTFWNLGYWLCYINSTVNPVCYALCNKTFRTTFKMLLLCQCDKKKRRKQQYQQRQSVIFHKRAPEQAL

VPAC1 (VIP1) (h) = target: T14, VPAC1 (VIP1) (h) (Homo sapiens, UniProt P32241); assay: Radioligand binding
T14 construct: Cerep (contract screening)
T14 sequence (P32241 31-457): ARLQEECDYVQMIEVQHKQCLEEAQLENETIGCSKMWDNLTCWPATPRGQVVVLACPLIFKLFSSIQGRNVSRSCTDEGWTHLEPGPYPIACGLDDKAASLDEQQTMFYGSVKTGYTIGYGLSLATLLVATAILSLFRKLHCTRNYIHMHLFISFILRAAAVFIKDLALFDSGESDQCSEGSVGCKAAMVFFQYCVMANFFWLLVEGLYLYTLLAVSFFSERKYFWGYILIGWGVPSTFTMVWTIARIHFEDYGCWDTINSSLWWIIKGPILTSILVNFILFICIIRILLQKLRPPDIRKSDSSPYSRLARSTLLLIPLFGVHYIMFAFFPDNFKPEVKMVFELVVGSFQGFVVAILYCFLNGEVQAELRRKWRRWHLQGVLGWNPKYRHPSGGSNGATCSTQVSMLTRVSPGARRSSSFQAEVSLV

MT1 (ML1A) (h) = target: T15, MT1 (ML1A) (h) (Homo sapiens, UniProt P48039); assay: Radioligand binding
T15 construct: Cerep

[4] = CYP3A4a, midazolam to 1'-OH-midazolam
[5] = CYP3A4b, testosterone to 6β-OH-testosterone
[6] = CYP3A4c, omeprazole to omeprazole sulphone
[7] = CYP3A4d, omeprazole to 3-OH-omeprazole
[8] = P. vinckei, 30 mg kg-1 i.p. 1x4 days

| Compound | Inhibition of control specific binding (TP (h) (TXA2/PGH2)) [%] | interference with 401 human kinases (401 human kinases) | IC50 (P. falciparum strain 3D7) [nM] | Remaining enzyme activity (CYP2E1) [%] | Inhibition of control specific binding (CB1 (h)) [%] | Inhibition of control specific binding (NOP (ORL1) (h)) [%] | Inhibition of control specific binding (dopamine transporter (h)) [%] | remaining after 60 min of incubation [1] [%] | Inhibition of control specific binding (M2 (h)) [%] | Remaining enzyme activity (CYP3A4; [4]) [%] | Remaining enzyme activity (CYP3A4; [5]) [%] | Remaining enzyme activity (CYP3A4; [6]) [%] | Remaining enzyme activity (CYP3A4; [7]) [%] | remaining after 60 min of incubation [2] | Inhibition of control specific binding (ETA (h)) [%] | Inhibition of control specific binding (5-HT1B) [%] | Inhibition of control specific binding (5-HT3 (h)) [%] | Inhibition of control specific binding (CCK1 (CCKA) (h)) [%] | Inhibition of control specific binding (b2 (h)) [%] | Inhibition of control specific binding (M1 (h)) [%] | further results |
| --- | --- | --- | --- | --- | --- | --- | --- | --- | --- | --- | --- | --- | --- | --- | --- | --- | --- | --- | --- | --- | --- |
| CCCCN1CCN(C(=N)c2cccc(NC(=O)Nc3ccc(S(=O)(=O)NCc4ccc(S(N)(=O)=O)cc4)cc3)c2)CC1 [SC81458, 4-(3-(3-((4-butylpiperazin-1-yl)(imino)methyl)phenyl)ureido)-N-(4-sulfamoylbenzyl) benzenesulfonamide] | -10 | did not interfere | 13 ± 1 | 106 | 21 | 2 | 79 | 54 | 45 | 74 | 77 | 66 | 98 | almost completely metabolized | 1 | -3 | 1 | 0 | 6 | 36 | parasitemia in treated mice at day 5 (Plasmodium vinckei; 30 mg kg^−1 per day for 4 days): 3.3%; Outcome (Plasmodium vinckei; [8]): rescrudescence; also recorded: all treated mice died of a recrudescent parasitemia; Outcome: decrease of parasitemia (Plasmodium vinckei; [8]): > 90% and 97%; microsomal CLint at 10 μM ([2]; monkey): 303 µL/min/mg; Inhibition of control specific binding (CXCR2 (IL-8B) (h)): -8%; IC50 [3]: 7 ± 1 nM; Inhibition of control specific binding (M3 (h)): 48%; Inhibition of control specific binding (VPAC1 (VIP1) (h)): -4%; Inhibition of control specific binding (MT1 (ML1A) (h)): -5% |
| COC(=O)N1CCN(C(=N)c2cccc(NC(=O)Nc3ccc(S(=O)(=O)NCc4ccc(S(N)(=O)=O)cc4)cc3)c2)CC1 [SC83288, methyl 4-(imino(3-(3-(4-(N-(4-sulfamoylbenzyl)sulfamoyl)phenyl)ureido)phenyl)methyl) piperazine-1-carboxylate] | -5 | did not interfere | 8 ± 2 | 68 | 1 | 10 | 82 | 96 | 68 | 92 | 88 | 87 | 92 | 50% | 0 | 6 | 17 | -5 | 27 | 75 | inhibition at 20 min, 10 µM (CYP2E1; human, pooled liver microsomes, pH 7.4, probe chlorzoxazone (10 μM)): 30%; Outcome (Plasmodium vinckei; P. vinckei, 20 mg kg-1 i.p. 1x4 days): complete clearance, no recrudescence; also recorded: fully cured the infection; microsomal CLint at 10 μM [2]: 75.8 ± 2.5 µL/min/mg; Inhibition of control specific binding (CXCR2 (IL-8B) (h)): -1%; IC50 [3]: 4 ± 1 nM; Inhibition of control specific binding (M3 (h)): 55%; Inhibition of control specific binding (VPAC1 (VIP1) (h)): -5%; Inhibition of control specific binding (MT1 (ML1A) (h)): -16% |
